These results are taken from ChEMBL document CHEMBL3414500, “New polycyclic dual inhibitors of the wild type and the V27A mutant M2 channel of the influenza A virus with unexpected binding mode” (Eur J Med Chem, 2015).

One data set concerns Influenza B virus. Briefly: Antiviral activity against Influenza B virus (B/HK/5/72) infected in MDCK cells assessed as reduction of virus-induced cytopathic effect after 72 hrs by microscopic analysis. The class given is functional, cell-based. As to conditions: B/Hong Kong/05/1972. For orientation: Damage to the host cells serves as the signal in cytopathic effect assays.

The target in another data set is Matrix protein 2 (Influenza A virus, UniProt P06821). The class given is cell membranes, Influenza A virus (A/udorn/1972(H3N2)).
A short description of data set [1]: Antiviral activity against Influenza A virus (A/HK/7/87(H3N2)) infected in MDCK cells assessed as reduction of virus-induced cytopathic effect after 72 hrs by microscopic analysis. The class given is functional, cell-based, Influenza A virus (A/Hong Kong/7/1987(H3N2)).
Data set [2] is described as follows: Cytotoxicity against MDCK cells assessed as cell viability after 72 hrs by MTS assay. It counts as cell-based, Canis lupus familiaris. As to conditions: dog. Background: Formazan colour is commonly taken as a measure of viable cells.
A short description of data set [3]: Antiviral activity against Influenza A virus (A/HK/7/87(H3N2)) infected in MDCK cells assessed as cell viability after 72 hrs by MTS assay. It counts as functional, cell-based, Influenza A virus (A/Hong Kong/7/1987(H3N2)).
In data set [4] the test system is Influenza A virus. Briefly: Antiviral activity against Influenza A virus (A/PR/8/34(H1N1)) infected in MDCK cells assessed as cell viability after 72 hrs by MTS assay. It counts as functional, organism-based. The conditions noted are these: A/Puerto Rico/8/1934(H1N1).
Data set [5] in a line: Antiviral activity against Influenza A virus (A/HK/7/87(H3N2)) infected in MDCK cells assessed as virus plaque reduction preincubated for 1 hr followed by compound wash out and incubated for 72 hrs by crystal violet staining. The class given is functional, cell-based, Influenza A virus (A/Hong Kong/7/1987(H3N2)).
In data set [6] the test system is Influenza A virus. In words: Antiviral activity against Influenza A virus (A/PR/8/34(H1N1)) infected in MDCK cells assessed as reduction of virus-induced cytopathic effect after 72 hrs by microscopic analysis. The class given is functional, organism-based. As to conditions: A/Puerto Rico/8/1934(H1N1).
A short description of data set [7]: Cytotoxicity against MDCK cells assessed as alternations in cell morphology after 72 hrs. It counts as cell-based, Canis lupus familiaris. As to conditions: dog.
In data set [8] the target is Matrix protein 2 (Influenza A virus) (UniProt P06821). It counts as cell membranes. The conditions noted are these: Influenza A virus (A/udorn/1972(H3N2)); 100 uM.
A short description of data set [9]: Antiviral activity against Influenza A virus (A/HK/7/87(H3N2)) infected in MDCK cells assessed as 2-log10 reduction in virus yield after 24 hrs by RT-qPCR analysis. It counts as functional, Influenza A virus (A/Hong Kong/7/1987(H3N2)). On the technique in general: In qPCR the cycle at which signal appears reflects the starting amount.

The source made the active and inactive calls. The calls are words filed in the database; no cut-off is given here.

Sequence of Matrix protein 2 (Influenza A virus) (P06821 whole entry): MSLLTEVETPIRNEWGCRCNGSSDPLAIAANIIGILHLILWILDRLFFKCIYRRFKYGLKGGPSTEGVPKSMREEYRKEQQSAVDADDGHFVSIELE
Sequence of Matrix protein 2 (P06821 whole entry): as above

Turning to `C1C[C@H]2[C@H]3[C@H]4[C@@H]1[C@@H]1[C@H]2[C@@H]2[C@H]3[C@@H]3CNC[C@@H]3[C@H]4[C@H]12`, the result in the data set on Influenza B virus was inactive. Besides, half-maximal inhibition on Matrix protein 2 (IC50) was put at 2.1 µM. The concentration giving a half-maximal response (EC50) (commonly the midpoint of the concentration-response curve) in data set [1] is greater than 100 µM; in data set [3] it was greater than 100 µM; in the data set with Influenza A virus [4] it was greater than 100 µM; in [5] it was 0.54 µM; with Influenza A virus [6], greater than 100 µM. Besides, the CC50 (in general, the concentration giving 50% cytotoxicity) at 72 h in data set [2] was found to be 3.7 µM. In addition, the MCC at 72 h in [7] turned out to be 4 µM. Further, the inhibition – broadly, the change of the read-out against control, counted positive when it falls – in data set [8] came to 98.1%. Further, in data set [9], the EC99 (commonly the point of the concentration-response curve where the effect stands at 99%) is greater than 2 µM.
Take `Brc1ccc(CNC23CC4CC(CC(C4)C2)C3)s1`: the inhibition in data set [8] was determined as 77%.
`CC(N)C12CC3CC(CC(C3)C1)C2` (stereo not given) [RIMANTADINE]: the EC50 in data set [1] amounted to 0.81 µM; in data set [3] it was 0.15 µM; in the data set on Influenza A virus [4], 5.1 µM; in data set [5], 0.02 µM; in the data set on Influenza A virus [6] it was 7.6 µM. In addition, in [9], the concentration for an effect of 99% (EC99) stood at 1.77 µM.
`NC12CC3CC(CC(C3)C1)C2` [AMANTADINE]: the EC50 is 1.4 µM in data set [1]; 1.4 µM in data set [3]; 34 µM in the data set with Influenza A virus [4]; 0.14 µM in data set [5]; 30 µM with Influenza A virus [6]. The EC99 in data set [9] worked out at 0.72 µM.
Consider `N=C(N)N1C[C@@H]2[C@H](C1)[C@H]1C3CC4[C@H]([C@H]41)[C@@H]32`, for which, in the data set on Influenza B virus, the result was inactive. On Matrix protein 2, the IC50 (in general, the concentration that gives 50% inhibition) was found to be 0.8 µM. Besides, the EC50 (in [1]; in data set [3]; in the data set on Influenza A virus [4]; in data set [5]; in the data set with Influenza A virus [6]) was greater than 100 µM throughout. In [2], the CC50 at 72 h is 50 µM. Further, in [7], the MCC at 72 h is greater than 100 µM. The molecule further registered an inhibition in data set [8] of 99%. Moreover, the EC99 in data set [9] is greater than 50 µM.
Regarding `C1=C[C@H]2[C@H]3[C@H]4[C@@H]1[C@@H]1[C@H]2[C@@H]2[C@H]3[C@@H]3CNC[C@@H]3[C@H]4[C@H]12`, in the data set with Influenza B virus, the outcome was inactive. The molecule further gave an IC50 against Matrix protein 2 of 2.6 µM. The EC50 in data set [1] is greater than 100 µM; in [3], greater than 100 µM; in the data set with Influenza A virus [4], greater than 100 µM; in data set [5], 0.37 µM; with Influenza A virus [6], greater than 100 µM. The CC50 at 72 h in data set [2] worked out at 11 µM. In addition, the MCC at 72 h in [7] was found to be 20 µM. Besides, the inhibition in data set [8] was determined as 96.4%. Moreover, the EC99 in [9] came to 3.45 µM.
In [8], `N=C(N)N1CC2C3CCC(C4CCC43)C2C1` (stereo not given) had an inhibition of 94.5%.
Turning to `N=C(N)N1C[C@@H]2[C@H](C1)[C@@H]1[C@@H]3[C@H]4CC[C@H]5[C@@H]3[C@H]2[C@H]2[C@@H]5[C@@H]4[C@@H]12`, the outcome with Influenza B virus was inactive. At Matrix protein 2, this molecule came in with an IC50 of 3.7 µM. Also, the EC50 in [1] was greater than 100 µM; in [3] it was greater than 100 µM; in the data set with Influenza A virus [4], greater than 100 µM; in [5], greater than 5 µM; in the data set with Influenza A virus [6], greater than 100 µM. The CC50 at 72 h in data set [2] was 4.6 µM. For the same molecule, the MCC at 72 h in [7] came out at 7 µM. The inhibition in data set [8] came to 90.6%. Besides, in [9], the EC99 is greater than 2 µM.
As for `C1C2[C@@H]3[C@H]2[C@@H]2C1[C@H]3[C@@H]1CNC[C@@H]12`, the outcome with Influenza B virus was inactive. At Matrix protein 2, this molecule showed an IC50 of 3.3 µM. For the same molecule, the EC50 was greater than 100 µM in data set [1]; greater than 100 µM in [3]; greater than 100 µM in the data set with Influenza A virus [4]; 6.7 µM in data set [5]; greater than 100 µM in the data set on Influenza A virus [6]. In data set [2], the CC50 at 72 h was greater than 100 µM. Further, the MCC at 72 h in data set [7] was greater than 100 µM. For the same molecule, the inhibition in [8] amounted to 93.7%. Also, the EC99 in [9] turned out to be 28 µM.
For `N=C(N)N1C[C@@H]2[C@H](C1)[C@@H]1[C@@H]3[C@H]4C=C[C@H]5[C@@H]3[C@H]2[C@H]2[C@@H]5[C@@H]4[C@@H]12`, in the data set with Influenza B virus, the result was inactive. This molecule gave an IC50 on Matrix protein 2 of 6.5 µM. The EC50 was greater than 100 µM in data set [1]; greater than 100 µM in [3]; greater than 100 µM with Influenza A virus [4]; greater than 5 µM in data set [5]; greater than 100 µM with Influenza A virus [6]. For the same molecule, in data set [2], the CC50 at 72 h is 1.2 µM. Further, the MCC at 72 h in data set [7] was found to be 2 µM. This molecule also registered an inhibition in data set [8] of 89.6%. Besides, in data set [9], the EC99 is greater than 2 µM.
